In US8222404B2, “[1,2,4]Thiadiazin-3-yl acetic acid compound and methods of making the acetic acid compound” (Anadys Pharmaceuticals, Inc., priority 2008, dated 2012):

System: HCV Huh-luc/neo-ET replicon cells
Experiment: Luciferase-Based HCV Replicon Assay (EC50 (1b))
Assay type: cell-based
Details: Hepatitis C virus, 72 hours exposure, luciferase activity
Procedure, shortened: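 EC50 (1b) derived from % inhibition of luciferase signal relative to untreated cells, background set by 100 nM BILN-2061 (protease inhibitor). Triplicate dose series added to replicon cells 24 h post-seeding; luminescence measured after 72 h compound exposure.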

SMILES | EC50
CS(=O)(=O)NCc1csc2c1S(=O)(=O)N=C(C1=C(O)[C@@H]3[C@H]4CC[C@H](C4)[C@@H]3N(Cc3ccc(F)cc3)C1=O)N2 [Example 1, (1R,2S,7R,8S)—N-{3-[3-(4-Fluoro-benzyl)-6-hydroxy-4-oxo-3-aza-tricyclo[6.2.1.0^2,7]undec-5-en-5-yl]-1,1-dioxo-1,4-dihydro-1λ^6-thieno[2,3-e][1,2,4]thiadiazin-7-ylmethyl}-methanesulfonamide] | ≤ 5 nM
CS(=O)(=O)NCc1ccc2c(c1)S(=O)(=O)N=C(C1=C(O)[C@@H]3[C@H]4CC[C@H](C4)[C@@H]3N(Cc3ccc(F)cc3)C1=O)N2 [Example 3, N-{3-[(1R,2S,7R,8S)-3-(4-Fluoro-benzyl)-6-hydroxy-4-oxo-3-aza-tricyclo[6.2.1.0^2,7]undec-5-en-5-yl]-1,1-dioxo-1,4-dihydro-1λ^6-benzo[1,2,4]thiadiazin-7-ylmethyl}-methanesulfonamide] | 100 to 1000 nM
CS(=O)(=O)NCc1csc2c1S(=O)(=O)N=C(C1=C(O)C3(CC3)CN(Cc3ccc(F)cc3)C1=O)N2 [Example 11, N-{3-[5-(4-Fluoro-benzyl)-8-hydroxy-6-oxo-5-aza-spiro[2.5]oct-7-en-7-yl]-1,1-dioxo-1,4-dihydro-1λ^6-thieno[2,3-e][1,2,4]thiadiazin-7-ylmethyl}-methanesulfonamide] | > 1000 nM
CS(=O)(=O)NCc1csc2c1S(=O)(=O)N=C(C1=C(O)[C@@H]3[C@H]4CC[C@H](C4)[C@@H]3N(CCC3CCC3)C1=O)N2 [Example 26, N-{3-[(1R,2S,7R,8S)-3-(2-Cyclobutyl-ethyl)-6-hydroxy-4-oxo-3-aza-tricyclo[6.2.1.0^2,7]undec-5-en-5-yl]-1,1-dioxo-1,4-dihydro-1λ^6-thieno[2,3-e][1,2,4]thiadiazin-7-ylmethyl}-methanesulfonamide] | 20 to 100 nM
CC(C)CCn1nc(-c2cccs2)c(O)c(C2=NS(=O)(=O)c3c(CNS(C)(=O)=O)csc3N2)c1=O [Example 28, N-{3-[5-Hydroxy-2-(3-methyl-butyl)-3-oxo-6-thiophen-2-yl-2,3-dihydro-pyridazin-4-yl]-1,1-dioxo-1,4-dihydro-1λ^6-thieno[2,3-e][1,2,4]thiadiazin-7-ylmethyl}-methanesulfonamide] | 100 to 1000 nM
CS(=O)(=O)NCc1csc2c1S(=O)(=O)N=C(C1=C(O)[C@@H]3[C@H]4CC[C@H](C4)[C@@H]3N(CC3(C(F)(F)F)CC3)C1=O)N2 [Example 29, N-{3-[(1R,2S,7R,8S)-6-Hydroxy-4-oxo-3-(1-trifluoromethyl-cyclopropylmethyl)-3-aza-tricyclo[6.2.1.0^2,7]undec-5-en-5-yl]-1,1-dioxo-1,4-dihydro-1λ^6-thieno[2,3-e][1,2,4]thiadiazin-7-ylmethyl}-methanesulfonamide] | 5 to 20 nM
CS(=O)(=O)NCc1csc2c1S(=O)(=O)N=C(C1=C(O)[C@@H]3[C@H]4CC[C@H](C4)[C@@H]3N(CCC3CCCC3)C1=O)N2 [Example 30, N-{3-[(1R,2S,7R,8S)-3-(2-Cyclopentyl-ethyl)-6-hydroxy-4-oxo-3-aza-tricyclo[6.2.1.0^2,7]undec-5-en-5-yl]-1,1-dioxo-1,4-dihydro-1λ^6-thieno[2,3-e][1,2,4]thiadiazin-7-ylmethyl}-methanesulfonamide] | 20 to 100 nM
CC(C)CCC1(C)CN(c2ccccc2)C(=O)C(C2=NS(=O)(=O)c3c(CNS(C)(=O)=O)csc3N2)=C1O (stereo not drawn) [Example 31, N-{3-[4-Hydroxy-5-methyl-5-(3-methyl-butyl)-2-oxo-1-phenyl-1,2,5,6-tetrahydro-pyridin-3-yl]-1,1-dioxo-1,4-dihydro-1λ^6-thieno[2,3-e][1,2,4]thiadiazin-7-ylmethyl}-methanesulfonamide] | > 1000 nM
O=C1C(C2=NS(=O)(=O)c3c(CNS(=O)(=O)C4CC4)csc3N2)=C(O)[C@@H]2[C@H]3CC[C@H](C3)[C@@H]2N1Cc1ccc(F)cc1 [Example 33, Cyclopropanesulfonic acid {3-[(1R,2S,7R,8S)-3-(4-fluoro-benzyl)-6-hydroxy-4-oxo-3-aza-tricyclo[6.2.1.0^2,7]undec-5-en-5-yl]-1,1-dioxo-1,4-dihydro-1λ^6-thieno[2,3-e][1,2,4]thiadiazin-7-ylmethyl}-amide] | 5 to 20 nM
NS(=O)(=O)NCc1csc2c1S(=O)(=O)N=C(C1=C(O)[C@@H]3[C@H]4CC[C@H](C4)[C@@H]3N(Cc3ccc(F)cc3)C1=O)N2 [Example 34, N-{3-[(1R,2S,7R,8S)-3-(4-Fluoro-benzyl)-6-hydroxy-4-oxo-3-aza-tricyclo[6.2.1.0^2,7]undec-5-en-5-yl]-1,1-dioxo-1,4-dihydro-1λ^6-thieno[2,3-e][1,2,4]thiadiazin-7-ylmethyl}-sulfamide] | 100 to 1000 nM
CC(=O)NCc1csc2c1S(=O)(=O)N=C(C1=C(O)[C@@H]3[C@H]4CC[C@H](C4)[C@@H]3N(Cc3ccc(F)cc3)C1=O)N2 [Example 35, N-{3-[(1R,2S,7R,8S)-3-(4-Fluoro-benzyl)-6-hydroxy-4-oxo-3-aza-tricyclo[6.2.1.0^2,7]undec-5-en-5-yl]-1,1-dioxo-1,4-dihydro-1λ^6-thieno[2,3-e][1,2,4]thiadiazin-7-ylmethyl}-acetamide] | 5 to 20 nM
COc1cc(CN2C(=O)C(C3=NS(=O)(=O)c4c(CNS(C)(=O)=O)csc4N3)=C(O)[C@@H]3C4CCC(CC4)[C@@H]32)ccc1F [Example 36, N-{3-[(2S,7R)-3-(4-Fluoro-3-methoxy-benzyl)-6-hydroxy-4-oxo-3-aza-tricyclo[6.2.2.0^2,7]dodec-5-en-5-yl]-1,1-dioxo-1,4-dihydro-1λ^6-thieno[2,3-e][1,2,4]thiadiazin-7-ylmethyl}-methanesulfonamide] | ≤ 5 nM
CS(=O)(=O)NCc1csc2c1S(=O)(=O)N=C(C1=C(O)[C@@H]3[C@H]4CC[C@H](C4)[C@@H]3N(Cc3ccc(F)c(Cl)c3)C1=O)N2 [Example 37, N-{3-[(1R,2S,7R,8S)-3-(3-Chloro-4-fluoro-benzyl)-6-hydroxy-4-oxo-3-aza-tricyclo[6.2.1.0^2,7]undec-5-en-5-yl]-1,1-dioxo-1,4-dihydro-1λ^6-thieno[2,3-e][1,2,4]thiadiazin-7-ylmethyl}-methanesulfonamide] | 5 to 20 nM
COc1cc(CN2C(=O)C(C3=NS(=O)(=O)c4c(CNS(C)(=O)=O)csc4N3)=C(O)[C@@H]3[C@H]4CC[C@H](C4)[C@@H]32)ccc1F [Example 38, N-{3-[(1R,2S,7R,8S)-3-(4-Fluoro-3-methoxy-benzyl)-6-hydroxy-4-oxo-3-aza-tricyclo[6.2.1.0^2,7]undec-5-en-5-yl]-1,1-dioxo-1,4-dihydro-1λ^6-thieno[2,3-e][1,2,4]thiadiazin-7-ylmethyl}-methanesulfonamide] | 5 to 20 nM
CS(=O)(=O)NCc1csc2c1S(=O)(=O)N=C(C1=C(O)[C@@H]3[C@@H]4CC[C@@H](C4)[C@@H]3N(Cc3ccccc3)C1=O)N2 [Example 39, N-[3-((1S,2S,7R,8R)-3-Benzyl-6-hydroxy-4-oxo-3-aza-tricyclo[6.2.1.0^2,7]undec-5-en-5-yl)-1,1-dioxo-1,4-dihydro-1λ^6-thieno[2,3-e][1,2,4]thiadiazin-7-ylmethyl]-methanesulfonamide] | 5 to 20 nM
CS(=O)(=O)NCc1csc2c1S(=O)(=O)N=C(C1=C(O)[C@@H]3[C@@H]4CC[C@@H](C4)[C@@H]3N(Cc3ccc(F)cc3F)C1=O)N2 [Example 40, N-{3-[(1S,2S,7R,8R)-3-(2,4-Difluoro-benzyl)-6-hydroxy-4-oxo-3-aza-tricyclo[6.2.1.0^2,7]undec-5-en-5-yl]-1,1-dioxo-1,4-dihydro-1λ^6-thieno[2,3-e][1,2,4]thiadiazin-7-ylmethyl}-methanesulfonamide] | 20 to 100 nM
CS(=O)(=O)NCc1csc2c1S(=O)(=O)N=C(C1=C(O)[C@@H]3[C@@H]4CC[C@@H](C4)[C@@H]3N(Cc3ccc(F)c(F)c3)C1=O)N2 [Example 41, N-{3-[(1S,2S,7R,8R)-3-(3,4-Difluoro-benzyl)-6-hydroxy-4-oxo-3-aza-tricyclo[6.2.1.0^2,7]undec-5-en-5-yl]-1,1-dioxo-1,4-dihydro-1λ^6-thieno[2,3-e][1,2,4]thiadiazin-7-ylmethyl}-methanesulfonamide] | 5 to 20 nM
CS(=O)(=O)NCc1csc2c1S(=O)(=O)N=C(C1=C(O)[C@@H]3[C@@H]4CC[C@@H](C4)[C@@H]3N(Cc3ccc(F)cc3Cl)C1=O)N2 [Example 42, N-{3-[(1S,2S,7R,8R)-3-(2-Chloro-4-fluoro-benzyl)-6-hydroxy-4-oxo-3-aza-tricyclo[6.2.1.0^2,7]undec-5-en-5-yl]-1,1-dioxo-1,4-dihydro-1λ^6-thieno[2,3-e][1,2,4]thiadiazin-7-ylmethyl}-methanesulfonamide] | 100 to 1000 nM
COc1cc(CN2C(=O)C(C3=NS(=O)(=O)c4c(CNS(C)(=O)=O)csc4N3)=C(O)[C@@H]3[C@@H]4CC[C@@H](C4)[C@@H]32)ccc1F [Example 43, N-{3-[(1S,2S,7R,8R)-3-(4-Fluoro-3-methoxy-benzyl)-6-hydroxy-4-oxo-3-aza-tricyclo[6.2.1.0^2,7]undec-5-en-5-yl]-1,1-dioxo-1,4-dihydro-1λ^6-thieno[2,3-e][1,2,4]thiadiazin-7-ylmethyl}-methanesulfonamide] | 20 to 100 nM
CS(=O)(=O)NCc1csc2c1S(=O)(=O)N=C(C1=C(O)[C@@H]3C4CCC(CC4)[C@@H]3N(Cc3ccc(F)c(Cl)c3)C1=O)N2 [Example 44, N-{3-[(2S,7R)-3-(3-Chloro-4-fluoro-benzyl)-6-hydroxy-4-oxo-3-aza-tricyclo[6.2.2.0^2,7]dodec-5-en-5-yl]-1,1-dioxo-1,4-dihydro-1λ^6-thieno[2,3-e][1,2,4]thiadiazin-7-ylmethyl}-methanesulfonamide] | ≤ 5 nM
CS(=O)(=O)NCc1csc2c1S(=O)(=O)N=C(C1=C(O)[C@@H]3C4CCC(CC4)[C@@H]3N(Cc3ccccc3)C1=O)N2 [Example 48, N-[3-((2S,7R)-3-Benzyl-6-hydroxy-4-oxo-3-aza-tricyclo[6.2.2.0^2,7]dodec-5-en-5-yl)-1,1-dioxo-1,4-dihydro-1λ^6-thieno[2,3-e][1,2,4]thiadiazin-7-ylmethyl]-methanesulfonamide] | ≤ 5 nM
